The values that follow come from ChEMBL document CHEMBL1129599, “Quantitative structure-activity relationship study of fibrinogen inhibitors, [[4-(4-amidinophenoxy)butanoyl]aspartyl]valine (FK633) derivatives, using a novel hydrophobic descriptor” (J Med Chem, 1996).

Data set [1] in a line: The retention time in min (25 uM). Format: ADME.
Data set [2] in a line: The retention time in min (35 uM). Format: ADME.
Data set [3] is described as follows: The retention time in min (40 uM). Format: ADME.
Data set [4] in a line: Micelle/water partition coefficient. Format: ADME. To be noted: buffer.
The nature of data set [5]: The retention time in min (30 uM). Format: ADME.
Data set [6] in a line: Inhibition of alphaIIb-beta3 integrin.
Data set [7] has as its target T1, Integrin alpha-IIb/beta-3 (Homo sapiens, UniProt P05106+P08514). Put plainly: Inhibition of alphaIIb-beta3 integrin. Format: protein-complex assay.
Data set [8] has as its target T1, Integrin alpha-IIb/beta-3. Briefly: Inhibition of binding to integrin alphaIIb-beta3. In kind it is protein-complex assay.
Data set [9] in a line: Inhibition of binding to fibrinogen receptor.

T1 sequence (P05106 27-788 limits assumed): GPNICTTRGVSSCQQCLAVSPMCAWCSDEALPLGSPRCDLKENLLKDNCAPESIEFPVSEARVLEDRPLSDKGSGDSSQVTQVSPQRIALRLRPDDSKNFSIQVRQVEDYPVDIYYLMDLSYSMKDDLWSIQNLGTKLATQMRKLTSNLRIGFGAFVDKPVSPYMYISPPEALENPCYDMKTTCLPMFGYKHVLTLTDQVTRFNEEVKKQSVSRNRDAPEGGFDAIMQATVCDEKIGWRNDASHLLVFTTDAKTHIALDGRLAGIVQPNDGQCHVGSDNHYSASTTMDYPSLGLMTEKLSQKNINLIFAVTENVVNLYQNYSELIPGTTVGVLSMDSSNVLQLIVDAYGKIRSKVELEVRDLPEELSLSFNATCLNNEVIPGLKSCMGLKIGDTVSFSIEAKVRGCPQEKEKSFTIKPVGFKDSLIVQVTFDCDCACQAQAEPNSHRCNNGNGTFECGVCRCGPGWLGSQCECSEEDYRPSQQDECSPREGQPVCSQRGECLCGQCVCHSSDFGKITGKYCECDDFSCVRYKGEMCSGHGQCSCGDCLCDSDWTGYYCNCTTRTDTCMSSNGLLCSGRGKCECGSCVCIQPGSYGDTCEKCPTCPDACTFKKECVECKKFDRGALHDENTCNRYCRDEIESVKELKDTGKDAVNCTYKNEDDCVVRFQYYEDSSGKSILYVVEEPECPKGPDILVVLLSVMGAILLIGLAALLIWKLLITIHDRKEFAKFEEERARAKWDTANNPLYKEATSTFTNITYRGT
T1 sequence (P08514 32-887 limits assumed): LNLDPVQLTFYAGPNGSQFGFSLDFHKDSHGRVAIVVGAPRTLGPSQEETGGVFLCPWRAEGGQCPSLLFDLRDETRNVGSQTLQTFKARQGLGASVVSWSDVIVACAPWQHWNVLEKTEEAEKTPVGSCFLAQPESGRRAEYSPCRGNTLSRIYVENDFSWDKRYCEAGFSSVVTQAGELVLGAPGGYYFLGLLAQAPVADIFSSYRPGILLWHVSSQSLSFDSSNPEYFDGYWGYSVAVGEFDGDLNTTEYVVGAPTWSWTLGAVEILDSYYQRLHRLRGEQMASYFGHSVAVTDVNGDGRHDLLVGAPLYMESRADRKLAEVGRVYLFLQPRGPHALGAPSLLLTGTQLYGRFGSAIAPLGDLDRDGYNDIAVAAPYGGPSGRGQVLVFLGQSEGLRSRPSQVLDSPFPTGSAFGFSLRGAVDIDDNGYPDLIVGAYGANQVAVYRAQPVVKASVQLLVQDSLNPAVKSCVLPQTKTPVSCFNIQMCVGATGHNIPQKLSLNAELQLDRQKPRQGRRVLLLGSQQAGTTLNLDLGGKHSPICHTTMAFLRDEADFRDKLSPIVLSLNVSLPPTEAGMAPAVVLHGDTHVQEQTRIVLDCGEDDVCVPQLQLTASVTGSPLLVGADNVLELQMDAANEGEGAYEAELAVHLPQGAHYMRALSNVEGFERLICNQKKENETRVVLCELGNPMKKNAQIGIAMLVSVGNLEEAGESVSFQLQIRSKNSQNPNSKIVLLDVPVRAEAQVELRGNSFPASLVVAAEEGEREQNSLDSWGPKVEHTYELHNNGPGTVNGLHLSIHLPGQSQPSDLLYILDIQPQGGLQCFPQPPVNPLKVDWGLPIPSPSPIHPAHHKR
T1 sequence (P08514 891-1039 limits assumed): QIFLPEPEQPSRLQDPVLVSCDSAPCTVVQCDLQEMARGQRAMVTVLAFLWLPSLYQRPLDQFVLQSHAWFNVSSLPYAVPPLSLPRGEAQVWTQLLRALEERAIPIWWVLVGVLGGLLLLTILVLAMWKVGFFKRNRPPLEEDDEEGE

In the case of `N=C(N)c1ccc(OCCCCC(=O)N[C@@H](CC(=O)O)C(=O)N[C@@H](Cc2ccc(O)cc2)C(=O)O)cc1`, the Retention time in data set [1] was 12.79 min; in data set [2], 10.57 min; in data set [3], 9.72 min; in data set [5], 11.47 min. Also, the “Log Pmw” value in [4] stood at 1.82. Also, the “Log IC50” value in data set [6] is -6.19.

As for `CN(C(=O)[C@H](CC(=O)O)NC(=O)CCCCOc1ccc(C(=N)N)cc1)[C@@H](Cc1ccc(O)cc1)C(=O)O`, the Retention time in data set [1] is 17.87 min; in data set [2] it was 14.24 min; in [3] it was 12.91 min; in data set [5], 15.67 min. In addition, the “Log Pmw” value in data set [4] is 2. In addition, the “Log IC50” value in data set [6] is listed as -6.57.

As for `CC(C)[C@H](NC(=O)[C@H](CC(=O)O)NC(=O)CCCCOc1ccc(C(=N)N)cc1)C(=O)O`, the Retention time in data set [1] came to 7.547 min; in data set [2], 6.832 min; in data set [3], 6.52 min; in [5], 7.12 min. Moreover, the “Log Pmw” value in data set [4] is 1.32. In addition, the “Log IC50” value in data set [6] is reported as -6.64.

For the compound `CC(C)[C@H](NC(=O)[C@H](CC(=O)O)NC(=O)CCCOc1ccc(C(=N)N)cc1)C(=O)O`, the Retention time in data set [1] is recorded as 5.898 min; in [2] it was 5.347 min; in data set [3], 5.207 min; in data set [5] it was 5.545 min. The same compound had an IC50 in data set [7] of 110 nM. Further, the “Log Pmw” value in data set [4] stood at 1.29.

With `COC(=O)[C@H](Cc1ccc(O)cc1)NC(=O)[C@H](CC(=O)O)NC(=O)CCCCOc1ccc(C(=N)N)cc1`, the Retention time amounted to 20.18 min in data set [1], 15.56 min in data set [2], 14.28 min in data set [3] and 17.31 min in [5]. In addition, the “Log Pmw” value in data set [4] amounted to 2.09. This compound had an IC50 in [8] of 4470 nM.

`N=C(N)c1ccc(OCCCCC(=O)N[C@@H](CC(=O)O)C(=O)N[C@@H](CO)C(=O)O)cc1`: the Retention time in data set [1] worked out at 3.324 min; in data set [2], 3.238 min; in data set [3], 3.199 min; in [5] it was 3.269 min. Further, the “Log Pmw” value in data set [4] was determined as 0.904.

Consider `N=C(N)c1ccc(OCCCC(=O)N[C@@H](CC(=O)O)C(=O)N[C@@H](Cc2ccc(O)cc2)C(=O)O)cc1`, for which the Retention time in data set [1] is on record as 10.54 min; in data set [2], 8.79 min; in data set [3] it was 8.23 min; in data set [5] it was 9.51 min. For the same compound, in data set [4], the “Log Pmw” value worked out at 1.74.

On to `CCCC[C@H](NC(=O)[C@H](CC(=O)O)NC(=O)CCCOc1ccc(C(=N)N)cc1)C(=O)O`, for which the Retention time in data set [1] is listed as 11.11 min; in [2], 9.491 min; in data set [3], 8.943 min; in data set [5] it was 10.21 min. Also, the “Log Pmw” value in data set [4] is 1.58. Moreover, the “Log IC50” value in [9] is reported as -7.12.

As for `CC[C@H](C)[C@H](NC(=O)[C@H](CC(=O)O)NC(=O)CCCOc1ccc(C(=N)N)cc1)C(=O)O`, the Retention time worked out at 9.413 min in data set [1], 8.25 min in data set [2], 7.826 min in data set [3] and 8.773 min in data set [5]. In data set [4], the “Log Pmw” value worked out at 1.47. The “Log IC50” value in data set [6] is given as -6.85.

`CN(C(=O)[C@H](CC(=O)O)NC(=O)CCCOc1ccc(C(=N)N)cc1)[C@@H](Cc1ccc(O)cc1)C(=O)O`: the Retention time in [1] came out at 14.85 min; in data set [2] it was 11.82 min; in data set [3], 10.91 min; in [5], 13.01 min. Besides, in [7], the IC50 was 129 nM. Moreover, the “Log Pmw” value in [4] was found to be 1.96.

With `CC(C)C[C@H](NC(=O)[C@H](CC(=O)O)NC(=O)CCCOc1ccc(C(=N)N)cc1)C(=O)O`, the Retention time in [1] stood at 9.413 min; in [2], 8.25 min; in data set [3], 7.826 min; in data set [5] it was 8.773 min. The compound also showed a 50% inhibitory concentration (IC50) in [7] of 135 nM. Also, the “Log Pmw” value in data set [4] is given as 1.47.

For `CC(C)(C)C[C@H](NC(=O)[C@H](CC(=O)O)NC(=O)CCCOc1ccc(C(=N)N)cc1)C(=O)O`, the Retention time in data set [1] is 14.11 min; in data set [2] it was 12.06 min; in data set [3], 11.19 min; in data set [5], 12.96 min. In [7], this compound showed an IC50 of 229 nM. For the same compound, the “Log Pmw” value in [4] is 1.59.
